Here are results for 2 compounds from patent publication US8084261B2, “Method for predicting responsiveness to a pharmaceutical therapy for obesity” (priority 2007, dated 2011).

In one experiment the test system is TRL V6. The experiment can be described thus: Cross therapeutic target rat study: reduction of circulating TRL V6 concentration after an acute dose (NMR LipoProfile). It is filed as in vivo, DIO-LE rats. Particulars: for Reduction in TRL V6 Response T1-(ie 2 hrs) / Reduction in TRL V6 Response T2-(ie 5 hrs) / Reduction in TRL V6 Response T3-(ie 18 hrs): DIO-LE rats on high fat chow, acute dose as in the Dose column; for Reduction in TRL V6 Response T1-(ie 2 hrs): T1 (ie 2 hrs) post dose; for Reduction in TRL V6 Response T2-(ie 5 hrs): T2 (ie 5 hrs) post dose; for Reduction in TRL V6 Response T3-(ie 18 hrs): T3 (ie 18 hrs) post dose; for reduction of circulating concentration of TRL V6 / reduction of circulating TRL V6 concentration / time by which TRL V6 plasma concentration returns to baseline: SNDRI 3 mg/kg; for time by which TRL V6 plasma concentration returns to baseline: post dose. The method, then:
As a typical example, whole blood samples are collected into 2 ml EDTA blood collection tubes, inverted several times to mix well, and placed on ice. The samples are then centrifuged at approximately 3000 rpm for 10-15 minutes at 4° C. Upon completion of centrifugation, the tube is placed on ice and the plasma is drawn off The plasma is place into a polypropylene tube and kept at 4° C. until analysis. Samples may be analyzed at any time up to about 4 days after collection. Samples are analyzed for TRL V6 response, as for example by NMR plasma lipoprotein analysis, as for example, the NMR LipoProfile®, the NMR LipoProfile®-II or the NMR LipoProfile®-III lipoprotein tests provided by LipoScience, Inc. of Raleigh, N.C.
The ability of investigational weight loss pharmaceutical agents to reduce the TRL V6 concentration in rats is shown with three compounds targeting different mechanisms of action including a known potent and selective 5-HT2C receptor agonist, a known potent and selective CB-1 receptor antagonist/inverse agonist, and a potent SNDRI (sibutramine) Each of these compounds are known to induce weight loss in rats and thus the biomarker of reduction in TRL V6 concentration correlates to the investigational weight loss pharmaceutical agents' ability to induce weight loss. Conversely, an opiate antagonist, (naltrexone) which is known to be ineffective in inducing weight loss in rats or in overweight and obese human subjects (Malcolm R et al., Int. J. Obes. 1985; 9(5):347-53), is shown to not reduce the TRL V6 concentration in rats, again correlating the biomarker of reduction in TRL V6 concentration to the investigational weight loss pharmaceutical agents' ability to induce weight loss.
DIO-LE rats maintained on a high fat chow are administered either a vehicle dose or an acute dose of test compound. At specified time points post dose, animals are sacrificed and blood is collected in blood sample tubes containing EDTA and processed essentially as described above. Samples are analyzed by NMR LipoProfile® lipoprotein sub-particle test with report of all particle subtypes (specifically the TRL V6 concentration or particle number).

Experiment [1] concerns large triglyceride rich lipoprotein subclasses. The experiment can be described thus: Human study with sibutramine: TRL response (AUC 5-11 hr) to fat load versus placebo, NMR LipoProfile. It is filed as in vivo. As for the experimental part:
Note that where TRL V6 response can be equated with the response of a combination of subtypes, it is because the magnitude of the change in signal, which is due to the change of TRL V6 signal, is sufficiently large compared to the base line signal, to be a significant difference (i.e. the signal from TRL V6 in the base line signal dominates the combined signal so that a change in TRL V6 is reliably detected).
A SNDRI (sibutramine) known to be able to induce weight loss in humans is tested to correlate its ability to reduce TRL V6 response plasma concentrations and V-TRL response in humans in an exploratory biomarker study employing a single-blind, crossover design, comparing sibutramine and placebo in hypertriglyceridemic and overweight and obese but otherwise healthy subjects.
Three cohorts containing 6 subjects each, undergo three periods during the study. Subjects are fasted overnight and two fasting blood draws are obtained, followed by breakfast at approximately 07:00 hours. Placebo or sibutramine is administered at approximately 10:00 hours. Blood sampling is begun approximately 1 hr. after the start of breakfast and continues at hourly intervals for 7 hr., and then every 2 hr. for the next 10 hr. A lunch according to Example fat load 2 is served at approximately 12:00 hours (approximately 60 to 65 g of fat). No other food is permitted until 12 hr. post fat load administration. Subjects are released after the last blood sampling for a 4 to 8-day washout period before return for the second testing period of the study. After the washout period, subjects are again fasted overnight. The procedures are then repeated as in the first testing period of the study except that each subject crosses over to receive the alternate treatment, sibutramine or placebo. Blood samples are collected, processed and analyzed essentially as described in Example 1 above.
TRL V6 responses and V-TRL responses are observed during the period from 5 to 11 hr. post fat load. […] In most subjects, the administration of sibutramine reduced the magnitude of the TRL V6 response and V-TRL response compared to their placebo-treated responses. Thus the reduction of the TRL V6 response and V-TRL response induced by the SNDRI correlates with the SNDRI known ability to induce weight loss in humans.

[2] abbreviates: rats, 2 hr. post dose, 5-HT2C agonist 10 mg/kg, naltrexone 10 mg/kg oral.
The mark [3] stands for this setting: rats, 5 hr. post dose, CB-1 antagonist 0.3 mg/kg.
Setting [4] is: rats, 5-HT2C agonist 10 mg/kg, CB-1 antagonist 0.3 mg/kg, naltrexone 10 mg/kg oral.
[5] abbreviates: AUC 5-11 hr. time points from lipid load.
The mark [6] stands for this setting: AUC 5-11 hr. time points from lipid load, chylomicrons.
[7] abbreviates: versus placebo, 5-11 hr. post fat load.

For the compound `CC(C)CC(N(C)C)C1(c2ccc(Cl)cc2)CCC1` (stereo not drawn) [Sibutramine, sibutramine], in the experiment with TRL V6, the “Reduction in TRL V6 Response T1-(ie 2 hrs)” value came out at 78%, the “Reduction in TRL V6 Response T2-(ie 5 hrs)” value is listed as 78% and the “Reduction in TRL V6 Response T3-(ie 18 hrs)” value is given as 0%. In addition, the “reduction of circulating concentration of TRL V6” value (from here on “reduction … of TRL V6”) with TRL V6 (setting [2]) is listed as “about 78%”. The “reduction of circulating TRL V6 concentration” value with TRL V6 (rats, 2 hr. post dose) is given as “about 78%”. In the experiment on TRL V6 (setting [3]), the “reduction of circulating TRL V6 concentration” value was “about 78%” and the “reduction … of TRL V6” value is recorded as “about 78%”. The “time by which TRL V6 plasma concentration returns to baseline” value with TRL V6 (setting [4]) is listed as “about 18 hr”. Besides, the “decrease in the TRL V6 response versus placebo” value in experiment [1] (AUC 5-11 hr. post fat load, mixed effects model, average of treated arms) is “about 28%”. In addition, in experiment [1] (setting [5]), the “Geometric LS Mean of AUC, analyte TRL V5” value is listed as 222.34; the “Geometric LS Mean of AUC, analyte TRL V6” value is 119.35; the “Geometric LS Mean of AUC, analytes TRL V6 + Chy” value is 205.0; the “Geometric LS Mean of AUC, analytes TRL V6 + TRL V5” value was found to be 364.08. Further, in experiment [1] (setting [5]), the “Geometric LS Mean of AUC, analytes TRL V6 + V5 + Chy” value is recorded as 458.04; the “Sibutramine/Placebo Ratio of AUC, analyte TRL V5” value is on record as 1.10; the “Sibutramine/Placebo Ratio of AUC, analyte TRL V6” value is given as 0.73; the “Sibutramine/Placebo Ratio of AUC, analytes TRL V6 + Chy” value is given as 0.81. In addition, in experiment [1] (setting [5]), the “Sibutramine/Placebo Ratio of AUC, analytes TRL V6 + TRL V5” value turned out to be 0.88 and the “Sibutramine/Placebo Ratio of AUC, analytes TRL V6 + V5 + Chy” value is 0.89. Besides, in experiment [1] (setting [6]), the “Geometric LS Mean of AUC, analyte Chy” value was 81.11 and the “Sibutramine/Placebo Ratio of AUC, analyte Chy” value was determined as 0.98. In experiment [1] (setting [7]), the “change in mean V-TRL response (in words)” value was “statistically significant decrease” and the “change in plasma concentrations of TRL V1, V2, V3, V4, or V5 subtypes (in words)” value is “does not show a significant change”.

As for `O=C1CC[C@@]2(O)[C@H]3Cc4ccc(O)c5c4[C@@]2(CCN3CC2CC2)[C@H]1O5` [Naltrexone, naltrexone], in the experiment on TRL V6, the “Reduction in TRL V6 Response T1-(ie 2 hrs)” value turned out to be 30%, the “Reduction in TRL V6 Response T2-(ie 5 hrs)” value is reported as 0% and the “Reduction in TRL V6 Response T3-(ie 18 hrs)” value amounted to 0%. In the experiment with TRL V6 (rats, 10 mg/kg oral, 18 hr. post dose), the “TRL V6 level at 18 hr. post dose (in words)” value is reported as “unchanged”. In addition, in the experiment on TRL V6 (rats, 10 mg/kg orally administrated dose), the “effect on circulating TRL V6 levels (in words)” value is given as “minimal effect”. For the same compound, the “reduction … of TRL V6” value in the experiment on TRL V6 (setting [2]) was found to be 30%. Also, the “time by which TRL V6 plasma concentration returns to baseline” value in the experiment on TRL V6 (setting [4]) came out at 5 h.
